Measured values published in ChEMBL document CHEMBL4819035, “C-2-Linked Dimeric Strychnine Analogues as Bivalent Ligands Targeting Glycine Receptors” (J Nat Prod, 2021).

Tests used:
[1] = biological target: T1, Glycine receptor subunit alpha-1 (Homo sapiens, UniProt P23415); experiment: Antagonist activity at human glycine receptor subunit alpha-1 expressed in HEK293 cells assessed as reduction in glycine-induced currents by whole-cell patch-clamp assay; format: cell-based
T1 sequence (P23415 whole entry): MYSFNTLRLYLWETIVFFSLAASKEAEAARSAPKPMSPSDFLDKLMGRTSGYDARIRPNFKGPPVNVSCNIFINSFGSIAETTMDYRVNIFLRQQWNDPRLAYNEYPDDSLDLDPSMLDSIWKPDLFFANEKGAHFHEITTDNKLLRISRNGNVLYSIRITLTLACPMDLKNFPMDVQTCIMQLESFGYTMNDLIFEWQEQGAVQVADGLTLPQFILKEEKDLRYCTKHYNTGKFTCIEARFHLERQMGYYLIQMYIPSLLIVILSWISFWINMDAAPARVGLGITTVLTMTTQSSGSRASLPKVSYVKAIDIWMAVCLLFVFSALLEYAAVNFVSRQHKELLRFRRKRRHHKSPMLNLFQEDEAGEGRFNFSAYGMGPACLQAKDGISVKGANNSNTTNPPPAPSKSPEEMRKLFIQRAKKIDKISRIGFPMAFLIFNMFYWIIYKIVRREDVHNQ

[2] = biological target: T1, Glycine receptor subunit alpha-1; experiment: Antagonist activity at human glycine receptor subunit alpha-1 expressed in human tsA201 cells assessed as reduction in glycine-induced response incubated for 30 mins by fluorescence-based FLIPR membrane potential blue assay; format: cell-based; settings: for IC50: read-out: IC50
[3] = biological target: T2, Glycine receptor (alpha-1/beta) (Homo sapiens, UniProt P23415+P48167); experiment: Antagonist activity at human glycine receptor subunit alpha-1beta expressed in human tsA201 cells assessed as reduction in glycine-induced response incubated for 30 mins by fluorescence-based FLIPR membrane potential blue assay; format: cell-based; settings: read-out: IC50
[4] = biological target: T2, Glycine receptor (alpha-1/beta); experiment: Antagonist activity at human glycine receptor subunit alpha-1beta expressed in HEK293 cells assessed as reduction in glycine-induced currents by whole-cell patch-clamp assay; format: cell-based
[5] = biological target: T1, Glycine receptor subunit alpha-1; experiment: Antagonist activity at human glycine receptor subunit alpha-1 assessed as inhibition of glycine-induced current measured at the onset of compound application by patch-clamp assay
[6] = biological target: T1, Glycine receptor subunit alpha-1; experiment: Displacement of [3H]strychnine from human glycine receptor subunit alpha-1 expressed in HEK293 cell membranes preincubated for 30 mins followed by [3H]strychnine addition and measured after 30 mins by liquid scintillation counting method; parameters: species or system Membrane
[7] = biological target: T1, Glycine receptor subunit alpha-1; experiment: Antagonist activity at human glycine receptor subunit alpha-1 assessed as inhibition of glycine-induced current measured at the later state of compound application by patch-clamp assay

T2 sequence (P48167 whole entry, one chain of several): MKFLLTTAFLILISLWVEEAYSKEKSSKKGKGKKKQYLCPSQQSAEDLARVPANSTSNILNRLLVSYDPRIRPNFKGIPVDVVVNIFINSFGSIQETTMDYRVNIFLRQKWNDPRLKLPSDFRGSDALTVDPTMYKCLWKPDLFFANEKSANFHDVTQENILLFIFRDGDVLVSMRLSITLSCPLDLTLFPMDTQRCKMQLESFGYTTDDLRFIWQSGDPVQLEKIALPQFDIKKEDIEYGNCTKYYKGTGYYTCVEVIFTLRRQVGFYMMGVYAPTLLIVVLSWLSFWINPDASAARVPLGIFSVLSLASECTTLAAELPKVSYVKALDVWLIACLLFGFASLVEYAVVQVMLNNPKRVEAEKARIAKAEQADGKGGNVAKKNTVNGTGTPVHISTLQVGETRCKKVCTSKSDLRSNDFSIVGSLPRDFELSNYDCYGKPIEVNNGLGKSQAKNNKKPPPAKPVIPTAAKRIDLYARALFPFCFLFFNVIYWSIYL

`O=C(CCCCCCC(=O)Nc1ccc2c(c1)[C@@]13CCN4CC5=CCO[C@H]6CC(=O)N2[C@H]1[C@H]6[C@H]5C[C@H]43)Nc1ccc2c(c1)[C@@]13CCN4CC5=CCO[C@H]6CC(=O)N2[C@H]1[C@H]6[C@H]5C[C@H]43` gave an IC50 [1] of 1.1 µM, an IC50 [2] of 6.9 µM and an IC50 [3] of 10 µM. The IC50 [4] was 1.3 µM.

`O=C1C[C@@H]2OCC=C3CN4CC[C@]56c7ccccc7N1[C@H]5[C@H]2[C@H]3C[C@H]46` [STRYCHNINE] gave an IC50 [5] of 0.134 µM, an IC50 [1] of 0.05 µM and a Ki [6] of 0.005 µM. For the same compound, the IC50 [7] was 0.027 µM, the pIC50 ([2]; tsa201) was 6.82 and the IC50 ([3]; tsa201) was 0.51 µM. The IC50 [4] was 0.06 µM.

`O=C(CCCCCCCCC(=O)Nc1ccc2c(c1)[C@@]13CCN4CC5=CCO[C@H]6CC(=O)N2[C@H]1[C@H]6[C@H]5C[C@H]43)Nc1ccc2c(c1)[C@@]13CCN4CC5=CCO[C@H]6CC(=O)N2[C@H]1[C@H]6[C@H]5C[C@H]43` showed an IC50 [1] of 1.5 µM, an IC50 [2] of 7.2 µM and an IC50 [3] of 10 µM. The IC50 [4] was 1.9 µM.
